Source: ChEMBL document CHEMBL5137037, “Phage Display Selected Cyclic Peptide Inhibitors of Kallikrein-Related Peptidases 5 and 7 and Their In Vivo Delivery to the Skin” (J Med Chem, 2022)
Numbered stars: 1 amine (or outer) side, 2 acyl side, 3 side chain; on linkers, the order of the positions; unused ones are H or OH. Bridge positions count the residues as written; N and C are the ends. Peptide text beside a SMILES is read from it. Pyridine(2,6-diCH2) = c1cc(C[*:1])nc(C[*:2])c1

Target: T1, Kallikrein-5 (Homo sapiens, UniProt Q9Y337)
T1 sequence (Q9Y337 whole entry): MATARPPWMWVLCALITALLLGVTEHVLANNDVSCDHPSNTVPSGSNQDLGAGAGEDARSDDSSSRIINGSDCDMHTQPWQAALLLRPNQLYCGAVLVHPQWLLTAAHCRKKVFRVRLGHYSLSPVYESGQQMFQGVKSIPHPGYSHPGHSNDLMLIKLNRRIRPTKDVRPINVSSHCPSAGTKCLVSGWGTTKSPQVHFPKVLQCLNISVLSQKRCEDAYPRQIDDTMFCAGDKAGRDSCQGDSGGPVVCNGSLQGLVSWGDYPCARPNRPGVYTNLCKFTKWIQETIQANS
Test: Inhibition of C-terminal poly-His-tagged human recombinant KLK5 (30 to 293 residues) transfected in CHO cells assessed as inhibition constant using Boc-VPR-AMC as fluorogenic substrate incubated for 30 mins by fluorescence plate reader assay
Assay type: cell-based

CC(C)C[C@@H]1NC(=O)[C@@H](NC(=O)[C@H](CCC(N)=O)NC(=O)[C@@H]2CCCN2C(=O)[C@H](CC(N)=O)NC(=O)[C@H](C)NC(=O)[C@@H]2CSCC(=O)CSC[C@H](NC(=O)[C@H](C)N)C(=O)N[C@@H]([C@@H](C)O)C(=O)N[C@@H](CCCNC(=N)N)C(=O)N[C@@H](CCC(=O)O)C(=O)N[C@@H](Cc3ccc(O)cc3)C(=O)N[C@@H](CC(N)=O)C(=O)N3CCC[C@H]3C(=O)N[C@@H](CCC(N)=O)C(=O)N2)CSCC(=O)CSC[C@@H](C(=O)N[C@@H](Cc2cnc[nH]2)C(=O)O)NC1=O
Ki: 28 nM

C[C@@H](O)[C@@H]1NC(=O)[C@@H](NC(=O)CN)CSCC(=O)CSC[C@@H](C(=O)O)NC(=O)[C@@H]2CCCN2C(=O)[C@H](Cc2ccc(O)cc2)NC(=O)[C@H](CCC(=O)O)NC(=O)[C@H](CCCNC(=N)N)NC1=O
Ki: 3.2 nM

C[C@@H](O)[C@@H]1NC(=O)[C@@H](NC(=O)CN)CSCC(=O)CSC[C@@H](C(=O)O)NC(=O)[C@@H]2CCCN2C(=O)[C@H](Cc2c[nH]c3ccccc23)NC(=O)[C@H](CCC(N)=O)NC(=O)[C@H](CCCNC(=N)N)NC1=O
Ki: 3.6 nM

CC(C)[C@H](NC(=O)[C@H]1CSCc2cccc(n2)CSC[C@@H](NC(=O)[C@H](CO)NC(=O)CNC(=O)[C@@H]2CCCN2C(=O)[C@@H](NC(=O)[C@H](CO)NC(=O)[C@H](CC(=O)O)NC(=O)[C@@H]2CSCc3cccc(n3)CSC[C@@H](NC(=O)CN)C(=O)N[C@@H]([C@@H](C)O)C(=O)N[C@@H](CCCNC(=N)N)C(=O)N[C@@H](CCC(N)=O)C(=O)N[C@@H](Cc3c[nH]c4ccccc34)C(=O)N3CCC[C@H]3C(=O)N2)C(C)C)C(=O)N[C@@H]([C@@H](C)O)C(=O)N1)C(=O)O
Ki (cho): 2 nM

C[C@@H](O)[C@@H]1NC(=O)[C@@H](NC(=O)CN)CSCC(=O)CSC[C@@H](C(=O)O)NC(=O)[C@@H]2CCCN2C(=O)[C@H](Cc2c[nH]c3ccccc23)NC(=O)[C@H](CCC(=O)O)NC(=O)[C@H](CCCNC(=N)N)NC1=O
Ki: 5.1 nM

CSCC[C@H](N)C(=O)N[C@H]1CSCC(=O)CSC[C@@H](C(=O)N[C@H]2CSCC(=O)CSC[C@@H](C(=O)N3CCC[C@H]3C(=O)O)NC(=O)[C@H]([C@@H](C)O)NC(=O)[C@H](CCCNC(=N)N)NC(=O)[C@H](CCC(N)=O)NC(=O)[C@@H]3CCCN3C2=O)NC(=O)[C@H](CC(C)C)NC(=O)[C@H](CO)NC(=O)[C@@H]2CCCN2C(=O)[C@H](CC(=O)O)NC(=O)[C@H](Cc2c[nH]c3ccccc23)NC(=O)[C@H](CCC(N)=O)NC(=O)[C@H](CCCNC(=N)N)NC(=O)[C@H](CO)NC1=O
Ki: 24 nM

CC(C)[C@H](NC(=O)[C@H]1CSCc2cccc(n2)CSC[C@@H](NC(=O)[C@H](CO)NC(=O)CNC(=O)[C@@H]2CCCN2C(=O)[C@@H](NC(=O)[C@H](CO)NC(=O)[C@H](CC(=O)O)NC(=O)[C@@H]2CSCc3cccc(n3)CSC[C@H](NC(=O)CN)C(=O)N[C@@H]([C@@H](C)O)C(=O)N[C@@H](CCCNC(=N)N)C(=O)N[C@@H](CCC(N)=O)C(=O)N[C@@H](Cc3c[nH]c4ccccc34)C(=O)N3CCC[C@H]3C(=O)N2)C(C)C)C(=O)N[C@@H]([C@@H](C)O)C(=O)N1)C(=O)O
Ki (cho): 2.7 nM

CC(C)[C@@H]1NC(=O)[C@H](CCC(N)=O)NC(=O)[C@H](CCCNC(=N)N)NC(=O)[C@H]([C@@H](C)O)NC(=O)[C@@H](NC(=O)CN)CSCc2cccc(n2)CSC[C@@H](C(=O)N[C@@H](CCC(N)=O)C(=O)N[C@@H](CCC(N)=O)C(=O)N[C@H](C(=O)N2CCC[C@H]2C(=O)N[C@@H](C)C(=O)N[C@H]2CSCc3cccc(n3)CSC[C@@H](C(=O)N[C@@H](CC(N)=O)C(=O)O)NC(=O)[C@H](C)NC(=O)[C@H](CO)NC(=O)[C@@H]3CCCN3C2=O)[C@@H](C)O)NC1=O (H-GCTRQVCQQTPACPSACN-OH; linker 2-7, 13-17 via Pyridine(2,6-diCH2))
Ki: 7 nM
